Measured values reported in patent publication US4968717A, “Phenylacetonitriles which are substituted by basic groups, their preparation and drugs containing these substances” (BASF Aktiengesellschaft, priority 1986, dated 1990).

How the values were obtained:
[1] = tested on: serotonin-induced increase in blood pressure; assay: inhibition of the serotonin-induced increase in blood pressure in the pithed rat on intravenous administration; type: in vivo, male Sprague-Dawley rats; details: for ED50: read-out: ED 50% (dose which inhibits the serotonin-induced increase in blood pressure by 50%)
From the text: Pithing is effected by means of a rod through the orbit. […] The criterium for effectiveness of a substance is the relative inhibition (Δ%) of the serotonin-induced increase in blood pressure (ΔmmHg). The valuation was effected quantitatively as an analysis of the linear regression (y=a+b x) of log dose (mg/kg) and relative inhibition (Δ%) of the serotonin-induced increase in blood pressure.

serotonin = details: literature; versus known serotonin antagonists; cited from earlier work
[2] = serotonin 0.0215 mg/kg i.v., linear regression of log dose and relative inhibition

Molecule | ED50 [1, 2] [mg/kg] | further results
COc1cc(OC)cc(C(C#N)(CCCN(C)CCc2ccc(Cl)c(Cl)c2)C(C)C)c1 (stereo not shown) [Example 7, 5-[(3,4-Dichlorophenethyl)-methylamino]-2-(3,5-dimethoxyphenyl)-2-isopropylvaleronitrile] | 0.1 | –
CCOc1cc(CCN(C)CCCC(C#N)(c2ccccc2)C(C)C)cc(OCC)c1 (stereo not shown) [Example 24, 5-[(3,5-diethoxyphenethyl)-methylamino]-2-phenyl-2-isopropylvaleronitrile] | 0.1 | –
COc1cccc(CCN(C)CCCC(C#N)(c2cc(OC)c(OC)c(OC)c2)C(C)C)c1 (stereo not shown) [Example 36, 5-[(3-methoxyphenethyl)-methylamino]-2-(3,4,5-trimethoxyphenyl)-2-isopropylvaleronitrile] | 0.0464 | –
COc1cc(OC)cc(C(C#N)(CCCN(C)CCc2ccc(Cl)cc2)C(C)C)c1 (stereo not shown) [Example 6, 5-[(4-Chlorophenethyl)-methylamino]-2-(3,5-dimethoxyphenyl)-2-isopropylvaleronitrile] | 0.1 | –
COc1cccc(C(C#N)(CCCN(C)CCc2ccccc2)C(C)C)c1 (stereo not shown) [Example 3, 5-[(Phenethyl)-methylamino]-2-(3-methoxyphenyl)-2-isopropylvaleronitrile] | 0.0464 | –
COc1ccc(CCN(C)CCCC(C#N)(c2ccc(OC)c(OC)c2)C(C)C)cc1OC (stereo not shown) [Verapamil] | – | antiserotonin action compared with known serotonin antagonists (serotonin): not very pronounced
CCOc1cc(CCN(C)CCCC(C#N)(c2cc(OC)cc(OC)c2)C(C)C)cc(OCC)c1 (stereo not shown) [Example 19, 5-[(3,5-diethoxyphenethyl)-methylamino]-2-(3,5-dimethoxyphenyl)-2-isopropylvaleronitrile] | 0.1 | –
COc1cccc(CCN(C)CCCC(C#N)(c2cccc(OC)c2)C(C)C)c1 (stereo not shown) [Example 4, 5-[(3-Methoxyphenethyl)-methylamino]-2-(3-methoxy-phenyl)-2-isopropylvaleronitrile] | 0.0318 | –
COc1cc(OC)cc(C(C#N)(CCCN(C)CCc2ccccc2)C(C)C)c1 (stereo not shown) [Example 5, 5-[(Phenethyl)methylamino]-2-(3,5-dimethoxyphenyl)-2-isopropylvaleronitrile] | 0.0464 | –
C=CCC(C#N)(CCCN(C)CCc1ccccc1)c1cccc(Cl)c1 (stereo not shown) [Example 31, 5-[(phenethyl)-methylamino]-2-(3-chlorophenyl)-2-allylvaleronitrile] | 0.464 | –
COc1cc(CCN(C)CCCC(C#N)(c2ccc(Cl)cc2)C(C)C)cc(OC)c1 (stereo not shown) [Example 42, 5-[(3,5-dimethoxyphenethyl)-methylamino]-2-(4-chlorophenyl)-2-isopropylvaleronitrile] | > 0.0464 | relative inhibition (Δ%) of the serotonin-induced increase in blood pressure ([1]; at dose 0.0464 mg/kg): 19%
COc1cc(OC)cc(C(C#N)(CCCN(C)CCc2ccc(C)c(C)c2)C(C)C)c1 (stereo not shown) [Example 20, 5-[(3,4-xylylethyl)-methylamino]-2-(3,5-dimethoxyphenyl)-2-isopropylvaleronitrile] | 0.1 | –
COc1cc(C(C#N)(CCCN(C)CCc2cccc(C(F)(F)F)c2)C(C)C)cc(OC)c1OC (stereo not shown) [Example 61, 5-[(3-trifluoromethylphenethyl)-methylamino]-2-(3,4,5-trimethoxyphenyl)-2-isopropylvaleronitrile] | 0.0681 | –
COc1cc(CCN(C)CCCC(C#N)(c2ccc(Cl)c(Cl)c2)C(C)C)cc(OC)c1 (stereo not shown) [Example 41, 5-[(3,5-dimethoxyphenethyl)-methylamino]-2-(3,4-dichlorophenyl)-2-isopropylvaleronitrile] | 0.1 | –
COc1cc(CCN(C)CCCC(C#N)(c2ccccc2)C(C)C)cc(OC)c1 (stereo not shown) [Example 14, 5-[(3,5-dimethoxyphenethyl)-methylamino]-2-phenyl-2-isopropylvaleronitrile] | 0.0464 | –
5-[(3,5-dimethoxyphenethyl)-methylamino]-2-(β,β,β-trifluoroethoxyphenyl)-2-isopropylvaleronitrile [Example 30] | – | ED 50% (dose which inhibits the serotonin-induced increase in blood pressure by 50%) [1, 2]: 0.1 mg/kg
COc1cc(C(C#N)(CCCN(C)CCc2cccc(Cl)c2)C(C)C)cc(OC)c1OC (stereo not shown) [Example 38, 5-[(3-chlorophenethyl)-methylamino]-2-(3,4,5-trimethoxyphenyl)-2-isopropylvaleronitrile] | 0.0681 | –

Molecule | ED50 [1, 2] [mg/kg] | further results
CCOc1cccc(C(C#N)(CCCN(C)CCc2cc(OC)cc(OC)c2)C(C)C)c1 (stereo not shown) [Example 17, 5-[(3,5-dimethoxyphenethyl)-methylamino]-2-(3-ethoxy-phenyl)-2-isopropylvaleronitrile] | 0.1 | –
COc1cccc(CCN(C)CCC[C@@](C#N)(c2ccc(OC)c(OC)c2)C(C)C)c1 [Example 58, (S)-5-[(3-methoxyphenethyl)-methylamino]-2-(3,4-dimethoxyphenyl)-2-isopropylvaleronitrile] | 0.0201 | –
C=CCC(C#N)(CCCN(C)CCc1cccc(OC)c1)c1cccc(Cl)c1 (stereo not shown) [Example 32, 5-[(3-methoxyphenethyl)-methylamino]-2-(3-chlorophenyl)-2-allylvaleronitrile] | 0.316 | –
COc1ccc(C(C#N)(CCCN(C)CCc2ccc(Cl)c(Cl)c2)C(C)C)cc1OC (stereo not shown) [Example 40, 5-[(3,4-dichlorophenethyl)-methylamino]-2-(3,4-dimethoxyphenyl)-2-isopropylvaleronitrile] | 0.1 | –
COc1cc(C(C#N)(CCCN(C)CCc2ccccc2)C(C)C)cc(OC)c1OC (stereo not shown) [Example 60, 5-[(phenethyl)-methylamino]-2-(3,4,5-trimethoxyphenyl)-2-isopropylvaleronitrile] | 0.0464 | –
COc1cccc(CCN(C)CCCC(C#N)(c2cc(OC)cc(OC)c2)C(C)C)c1 (stereo not shown) [Example 2, 5-[(3-Methoxyphenethyl)-methylamino]-2-(3,5-dimethoxyphenyl)-2-isopropylvaleronitrile] | 0.073 | –
COc1cc(C(C#N)(CCCN(C)CCc2cccc([N+](=O)[O-])c2)C(C)C)cc(OC)c1OC (stereo not shown) [Example 37, 5-[(3-nitrophenethyl)-methylamino]-2-(3,4,5-trimethoxyphenyl)-2-isopropylvaleronitrile] | 0.0464 | –
COc1cc(CCN(C)CCCC(C#N)(C(C)C)C2CCc3ccccc3C2)cc(OC)c1 (stereo not shown) [Example 43, 5-[(3,5-dimethoxyphenethyl)-methylamino]-2-(1,2,3,4-tetrahydronaphth-2-yl)-2-isopropylvaleronitrile] | 0.215 | –
COc1cc(C(C#N)(CCCN(C)CCc2ccc3c(c2)COCO3)C(C)C)cc(OC)c1OC (stereo not shown) [Example 39, 5-[(1,3-benzodioxan-6-ylethyl)-methylamino]-2-(3,4,5-trimethoxyphenyl)-2-isopropylvaleronitrile] | 0.0395 | –
COc1cccc(CCN(C)CCCC(C#N)(c2ccc(OC)c(OC)c2)C(C)C)c1 (racemic) [Example 57, (RS)-5-[(3-methoxyphenethyl)-methylamino]-2-(3,4-dimethoxyphenyl)-2-isopropylvaleronitrile] | 0.0423 | –
COc1cc(CCN(C)CCCC(C#N)(c2cccc(OC)c2)C(C)C)cc(OC)c1 (stereo not shown) [Example 1, 5-[(3,5-Dimethoxyphenethyl)-methylamino]-2-(3-methoxyphenyl)-2-isopropylvaleronitrile] | 0.0464 | –
COc1cc(OC)cc(C(C#N)(CCCN(C)CCc2cccc(C(F)(F)F)c2)C(C)C)c1 (stereo not shown) [Example 8, 5-[(3-Trifluoromethylphenethyl)-methylamino]-2-(3,5-dimethoxyphenyl)-2-isopropylvaleronitrile] | 0.0499 | –
COc1cc(OC)cc(C(C#N)(CCCN(C)CCc2ccc3c(c2)OCO3)C(C)C)c1 (stereo not shown) [Example 27, 5-[(3,4-methylenedioxyphenethyl)-methylamino]-2-(3,5-dimethoxyphenyl)-2-isopropylvaleronitrile] | 0.0464 | –
COc1cccc(CCN(C)CCCC(C#N)(c2ccccc2)C(C)C)c1 (stereo not shown) [Example 13, 5-[(3-methoxyphenethyl)-methylamino]-2-phenyl-2-isopropylvaleronitrile] | 0.0464 | –
COc1cc(CCN(C)CCCC(C#N)(c2cc(OC)cc(OC)c2)C(C)C)cc(OC)c1 (stereo not shown) [Example 59, 5-[(3,5-dimethoxyphenethyl)-methylamino]-2-(3,5-dimethoxyphenyl)-2-isopropylvaleronitrile] | 0.0464 | –
COc1ccc(CCN(C)CCCC(C#N)(c2cc(OC)c(OC)c(OC)c2)C(C)C)cc1OC (stereo not shown) [Gallopamil, reference compound] | 0.1 | relative inhibition (Δ%) of the serotonin-induced increase in blood pressure ([1]; at dose 0.1 mg/kg): 22%; antiserotonin action compared with known serotonin antagonists (serotonin): not very pronounced
CCOc1cccc(C(C#N)(CCCN(C)CCc2ccc(OC)c(OC)c2)C(C)C)c1 (stereo not shown) [Example 44, 5-[(3,4-dimethoxyphenethyl)-methylamino]-2-(3-ethoxy-phenyl)-2-isopropylvaleronitrile] | 0.0464 | –
